In publication PMC3393087 (Journal of the American Chemical Society, 2010):
Values after ≈ are worked out from the molar mass of the structure shown. Like-named read-outs stand apart in the source and are kept apart here.

Legend:
[1] = biological target: OXA-24 Tyr112Ala Met 223Ala (Acinetobacter baumannii, UniProt Q8RLA6, M223A/Y112A); conditions: substrate hydrolysis by OXA-24 Tyr112Ala Met223Ala
OXA-24 Tyr112Ala = OXA-24 Tyr112Ala (Acinetobacter baumannii, UniProt Q8RLA6, Y112A); conditions: substrate hydrolysis by OXA-24 Tyr112Ala
[2] = test system: A. baumannii strain JC7/04 pAT-RA/OXA-24 (Y112A,M223A); assay: microbe, parasite or virus in culture; assay type: cell-based; conditions: Acinetobacter baumannii
[3] = test system: A. baumannii strain JC7/04 pAT-RA/OXA-24 (WT); assay: microbe, parasite or virus in culture; assay type: cell-based, Acinetobacter baumannii
[4] = test system: A. baumannii strain JC7/04 pAT-RA; assay: microbe, parasite or virus in culture; assay type: cell-based, Acinetobacter baumannii
[5] = pAT-RA/OXA-24 (WT), tazobactam, 1-5 tested at 4 μg/ml, 50 μg/mL rifampin
[6] = pAT-RA/OXA-24 (WT), tazobactam, 1-5 tested at 16 μg/ml, 50 μg/mL rifampin
[7] = pAT-RA without blaOXA-24, tazobactam, 1-5 tested at 16 μg/ml, 50 μg/mL rifampin

| Compound | Km [1] [µM] | Km (OXA-24 Tyr112Ala) [µM] | MIC [2] [µg/mL] | MIC ([3]; Acinetobacter baumannii) [µg/mL] | MIC [3, 5] [µg/mL] | MIC [3, 6] [µg/mL] | MIC ([4]; pAT-RA without blaOXA-24, tazobactam, 1-5 tested at 4 μg/ml, 50 μg/mL rifampin) [µg/mL] | MIC [4, 7] [µg/mL] | reduction in MICs of meropenem or imipenem ([3]; inhibitor at 4 μg/ml combined with meropenem or imipenem, blaOXA-24 expressed) | MIC ([4]; Acinetobacter baumannii, JC7/04PATRA, read-out: MIC of inhibitor alone) [µg/mL] |
| --- | --- | --- | --- | --- | --- | --- | --- | --- | --- | --- |
| O=C(Cc1cccs1)N[C@@H]1C(=O)N2C(C(=O)O)=C(/C=C/c3ccc([N+](=O)[O-])cc3[N+](=O)[O-])CS[C@H]12 [NCF, nitrocefin] | 143 | 238 | – | – | – | – | – | – | – | – |
| C[C@@H](O)[C@H]1C(=O)N2C(C(=O)O)=C(S[C@@H]3CN[C@H](C(=O)N(C)C)C3)[C@H](C)[C@H]12 [Meropenem, meropenem] | – | – | 2 (≈ 5.22 µM) | 32 (≈ 83.4 µM) | 32 | 32 | 1 | 1 | – | – |
| C[C@]1(Cn2ccnn2)[C@H](C(=O)O)N2C(=O)C[C@H]2S1(=O)=O [tazobactam] | – | – | – | – | – | – | – | – | did not detect a reduction in MICs | > 64 |
| C[C@@H](O)[C@H]1C(=O)N2C(C(=O)O)=C(SCCN=CN)C[C@H]12 [Imipenem, imipenem] | – | – | 4 (≈ 13.4 µM) | 32 (≈ 107 µM) | 32 | 32 | – | 1 | – | – |
